Test results published in ChEMBL document CHEMBL1201862, “PubChem BioAssay data set” (2004).
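Values below derive from 48-hour exposures of cells grown in 96-well plates, with endpoints linearly interpolated between the two concentrations bracketing the appropriate inhibition level. GI50 marks 50% less growth.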 Calls of active or inactive are those of the source. Rule as the data show it: active = GI50 up to about 1.1 µM and inactive = higher.

Columns and labels:
Assay in all cases: inhibition of tumour cell growth, NCI panel, 48 h
SN12C = system: SN12C
K562 = system: K562
HOP-62 = system: HOP-62
KM12 = system: KM12
SR = system: SR
UO-31 = system: UO-31
Malme-3M = system: Malme-3M
SF-295 = system: SF-295
HOP-92 = system: HOP-92
SW-620 = system: SW-620
SK-MEL-5 = system: SK-MEL-5
UACC-257 = system: UACC-257
SK-OV-3 = system: SK-OV-3
OVCAR-5 = system: OVCAR-5
SK-MEL-28 = system: SK-MEL-28
NCI-H522 = system: NCI-H522
OVCAR-3 = system: OVCAR-3
RPMI-8226 = system: RPMI-8226

Row | SMILES | GI50 (SN12C) | GI50 (K562) | GI50 (HOP-62) | GI50 (KM12) | GI50 (SR) | GI50 (UO-31) | GI50 (Malme-3M) | GI50 (SF-295) | GI50 (HOP-92) | GI50 (SW-620) | GI50 (SK-MEL-5) | GI50 (UACC-257) | GI50 (SK-OV-3) | GI50 (OVCAR-5) | GI50 (SK-MEL-28) | GI50 (NCI-H522) | GI50 (OVCAR-3) | GI50 (RPMI-8226)
1 | C[N+](C)(C)CC(=O)N/N=c1\cc(C(=O)Nc2ccc(N=O)cc2C#N)oc2cc(O)ccc12 | > 100 µM (inactive) | > 100 µM (inactive) | > 100 µM (inactive) | > 100 µM (inactive) | > 100 µM (inactive) | 72.3 µM (inactive) | > 100 µM (inactive) | > 100 µM (inactive) | > 100 µM (inactive) | > 100 µM (inactive) | > 100 µM (inactive) | > 100 µM (inactive) | > 100 µM (inactive) | > 100 µM (inactive) | > 100 µM (inactive) | > 100 µM (inactive) | > 100 µM (inactive) | –
2 | N#CCCN(CCC#N)c1ccc(/C=C(/NC(=O)c2cc([N+](=O)[O-])ccc2Cl)C(=O)NN)cc1 | > 100 µM (inactive) | > 100 µM (inactive) | > 100 µM (inactive) | > 100 µM (inactive) | 3.94 µM (inactive) | > 100 µM (inactive) | > 100 µM (inactive) | > 100 µM (inactive) | – | > 100 µM (inactive) | > 100 µM (inactive) | > 100 µM (inactive) | > 100 µM (inactive) | > 100 µM (inactive) | > 100 µM (inactive) | > 100 µM (inactive) | 77.8 µM (inactive) | 29.6 µM (inactive)
3 | Nc1ccc2ncc(Nc3ccc(F)cc3)nc2c1 | > 100 µM (inactive) | 52.5 µM (inactive) | > 100 µM (inactive) | 46.3 µM (inactive) | 44 µM (inactive) | 99.3 µM (inactive) | > 100 µM (inactive) | > 100 µM (inactive) | – | > 100 µM (inactive) | 34.9 µM (inactive) | > 100 µM (inactive) | – | 84.5 µM (inactive) | > 100 µM (inactive) | > 100 µM (inactive) | > 100 µM (inactive) | 87.3 µM (inactive)
4 | C=CCC1C(=O)C(C(=O)OC)N2CCc3c([nH]c4ccccc34)C12 (stereo not given) | > 100 µM (inactive) | > 100 µM (inactive) | > 100 µM (inactive) | > 100 µM (inactive) | 61.1 µM (inactive) | > 100 µM (inactive) | > 100 µM (inactive) | > 100 µM (inactive) | 57.4 µM (inactive) | > 100 µM (inactive) | > 100 µM (inactive) | – | > 100 µM (inactive) | > 100 µM (inactive) | > 100 µM (inactive) | 80 µM (inactive) | > 100 µM (inactive) | 59.2 µM (inactive)
5 | O=C1C=C(N2CCCC2)C=C(N2CCCC2)C1 | – | > 100 µM (inactive) | > 100 µM (inactive) | > 100 µM (inactive) | > 100 µM (inactive) | > 100 µM (inactive) | > 100 µM (inactive) | > 100 µM (inactive) | > 100 µM (inactive) | > 100 µM (inactive) | > 100 µM (inactive) | > 100 µM (inactive) | > 100 µM (inactive) | > 100 µM (inactive) | > 100 µM (inactive) | > 100 µM (inactive) | 75.5 µM (inactive) | > 100 µM (inactive)
6 | CC(=O)OC1C(O)C(C)OC(OC(=O)C2CCC3C(C2)OC2(CC(OC(=O)/C=C/c4ccccc4)C(C)CO2)C32CO2)C1OC1OC(C)C(O)C(O)C1O (stereo not given) | 0.0514 µM (active) | 0.0383 µM (active) | 0.0794 µM (active) | 0.0371 µM (active) | – | 7.78 µM (inactive) | 0.0378 µM (active) | 0.0776 µM (active) | 0.0325 µM (active) | 0.0504 µM (active) | 0.0332 µM (active) | 0.0325 µM (active) | 0.0586 µM (active) | 0.091 µM (active) | 0.0355 µM (active) | 0.0325 µM (active) | 0.0578 µM (active) | 0.0361 µM (active)
7 | O=C(Nc1cccc2ccccc12)Oc1ccccc1C1CCCCC1 | 16 µM (inactive) | 24.2 µM (inactive) | 19 µM (inactive) | 20.2 µM (inactive) | 17.5 µM (inactive) | 16.1 µM (inactive) | 17.7 µM (inactive) | 16.3 µM (inactive) | 15.8 µM (inactive) | 20.6 µM (inactive) | 15.5 µM (inactive) | 15.5 µM (inactive) | 30.8 µM (inactive) | 17.3 µM (inactive) | 22.6 µM (inactive) | – | 18.6 µM (inactive) | 30.3 µM (inactive)
8 | C=C1C(=O)OC2C=C(C)CC3C=C(CCC=C(C)CCC12)C(=O)O3 (stereo not given) | 69 µM (inactive) | 55.8 µM (inactive) | 114 µM (inactive) | 52.7 µM (inactive) | – | 105 µM (inactive) | 46.1 µM (inactive) | 79.4 µM (inactive) | 52.8 µM (inactive) | 31 µM (inactive) | 67.9 µM (inactive) | 43.1 µM (inactive) | 121 µM (inactive) | 101 µM (inactive) | 58.1 µM (inactive) | 17.3 µM (inactive) | 56.8 µM (inactive) | 44.9 µM (inactive)
